Experimental data as given in PubChem BioAssay AID1259407 (Chemical Carcinogenesis Research Information System (CCRIS), 2018).
Activity calls are given as the source filed them. The rule behind the calls is not given here.

Test system: CCRIS mutagenicity, Ames/micronucleus/aberration tests
Experiment: CCRIS mutagenicity studies

Measured: mutagenic call

Cc1cnc[nH]1
inactive: End Point: In vivo micronucleus, Test System: Bone marrow polychromatic erythrocytes, Species: Mouse, Strain/Sex: B6C3F1/Male, Route: Intraperitoneal inactive; positive in trial 1; negative in trial 2; percentage of pces declined with incre | End Point: In vivo micronucleus, Test System: Polychromatic erythrocytes and Normochromatic erythrocytes, Species: Mouse, Strain/Sex: B6C3F1/Female, Route: Oral inactive; negative (no increase in micronucleus frequencies at all levels; percentage of | End Point: In vivo micronucleus, Test System: Polychromatic erythrocytes and Normochromatic erythrocytes, Species: Mouse, Strain/Sex: B6C3F1/Male, Route: Oral inactive; negative (no increase in micronucleus frequencies at all levels; percentage of | Test System: AMES SALMONELLA TYPHIMURIUM, Strain/Indicator: TA98, Metabolic Activation: NONE, Method: PREINCUBATION inactive; negative | Test System: AMES SALMONELLA TYPHIMURIUM, Strain/Indicator: TA98, Metabolic Activation: RAT LIVER S-9, PHENOBARBITAL AND BETA-NAPHTHOFLAVONE, Method: PREINCUBATION inactive; negative | Test System: AMES SALMONELLA TYPHIMURIUM, Strain/Indicator: TA100, Metabolic Activation: NONE, Method: PREINCUBATION inactive; negative | Test System: AMES SALMONELLA TYPHIMURIUM, Strain/Indicator: TA100, Metabolic Activation: RAT LIVER S-9, PHENOBARBITAL AND BETA-NAPHTHOFLAVONE, Method: PREINCUBATION inactive; negative | Test System: AMES SALMONELLA TYPHIMURIUM, Strain/Indicator: TA102, Metabolic Activation: NONE, Method: PREINCUBATION inactive; negative | Test System: AMES SALMONELLA TYPHIMURIUM, Strain/Indicator: TA102, Metabolic Activation: RAT LIVER S-9, PHENOBARBITAL AND BETA-NAPHTHOFLAVONE, Method: PREINCUBATION inactive; negative | Test System: AMES SALMONELLA TYPHIMURIUM, Strain/Indicator: TA104, Metabolic Activation: NONE, Method: PREINCUBATION inactive; negative | Test System: AMES SALMONELLA TYPHIMURIUM, Strain/Indicator: TA104, Metabolic Activation: RAT LIVER S-9, PHENOBARBITAL AND BETA-NAPHTHOFLAVONE, Method: PREINCUBATION inactive; negative | Test System: AMES SALMONELLA TYPHIMURIUM, Strain/Indicator: TA1535, Metabolic Activation: NONE, Method: PREINCUBATION inactive; negative | Test System: AMES SALMONELLA TYPHIMURIUM, Strain/Indicator: TA1535, Metabolic Activation: RAT LIVER S-9, PHENOBARBITAL AND BETA-NAPHTHOFLAVONE, Method: PREINCUBATION inactive; negative | Test System: AMES SALMONELLA TYPHIMURIUM, Strain/Indicator: TA1537, Metabolic Activation: NONE, Method: PREINCUBATION inactive; negative | Test System: AMES SALMONELLA TYPHIMURIUM, Strain/Indicator: TA1537, Metabolic Activation: RAT LIVER S-9, PHENOBARBITAL AND BETA-NAPHTHOFLAVONE, Method: PREINCUBATION inactive; negative | Test System: Ames Salmonella typhimurium, Strain/Indicator: TA97, Metabolic Activation: Hamster, liver, S-9, Aroclor 1254, Method: Preincubation inactive; negative | Test System: Ames Salmonella typhimurium, Strain/Indicator: TA97, Metabolic Activation: None, Method: Preincubation inactive; negative | Test System: Ames Salmonella typhimurium, Strain/Indicator: TA97, Metabolic Activation: Rat, liver, S-9, Aroclor 1254, Method: Preincubation inactive; negative | Test System: Ames Salmonella typhimurium, Strain/Indicator: TA98, Metabolic Activation: Hamster, liver, S-9, Aroclor 1254, Method: Preincubation inactive; negative | Test System: Ames Salmonella typhimurium, Strain/Indicator: TA98, Metabolic Activation: None, Method: Preincubation inactive; negative | Test System: Ames Salmonella typhimurium, Strain/Indicator: TA98, Metabolic Activation: Rat, liver, S-9, Aroclor 1254, Method: Preincubation inactive; negative | Test System: Ames Salmonella typhimurium, Strain/Indicator: TA100, Metabolic Activation: Hamster, liver, S-9, Aroclor 1254, Method: Preincubation inactive; negative | Test System: Ames Salmonella typhimurium, Strain/Indicator: TA100, Metabolic Activation: None, Method: Preincubation inactive; negative | Test System: Ames Salmonella typhimurium, Strain/Indicator: TA100, Metabolic Activation: Rat, liver, S-9, Aroclor 1254, Method: Preincubation inactive; negative | Test System: Ames Salmonella typhimurium, Strain/Indicator: TA1535, Metabolic Activation: Hamster, liver, S-9, Aroclor 1254, Method: Preincubation inactive; negative | Test System: Ames Salmonella typhimurium, Strain/Indicator: TA1535, Metabolic Activation: None, Method: Preincubation inactive; negative | Test System: Ames Salmonella typhimurium, Strain/Indicator: TA1535, Metabolic Activation: Rat, liver, S-9, Aroclor 1254, Method: Preincubation inactive; negative | Test System: E.COLI, Strain/Indicator: WP2UVRA/PKM101, Metabolic Activation: NONE, Method: PREINCUBATION inactive; negative | Test System: E.COLI, Strain/Indicator: WP2UVRA/PKM101, Metabolic Activation: RAT LIVER S-9, PHENOBARBITAL AND BETA-NAPHTHOFLAVONE, Method: PREINCUBATION inactive; negative | Test System: E.COLI, Strain/Indicator: WP2UVRA, Metabolic Activation: NONE, Method: PREINCUBATION inactive; negative | Test System: E.COLI, Strain/Indicator: WP2UVRA, Metabolic Activation: RAT LIVER S-9, PHENOBARBITAL AND BETA-NAPHTHOFLAVONE, Method: PREINCUBATION inactive; negative
